Test results published in patent publication US8329645B2, “Polymyxin derivatives and uses thereof” (priority 2008, dated 2012).
Where a SMILES comes first, the peptide text is derived from it. Bridges are numbered along the chain shown (N, C = ends). [ ]: non-standard residue; d: D form. The star is where a group is joined. Decanoyl = CCCCCCCCCC(=O)*; Octanoyl = CCCCCCCC(=O)*; Dab = NCC[C@H](N)C(=O)O; Abu = CC[C@H](N)C(=O)O

Experiments:
K. pneumoniae CCUG45421 = test: Growth inhibition around wells on LB agar plates; format: cell-based, Klebsiella pneumoniae
Experimental: (§1) From an overnight-grown culture of IH3080 on LB agar, a suspension of approx. 10^8 cells/ml was prepared in 0.9% NaCl. Aliquots of this suspension were then pipetted on the agar plates and the plates were gently shaken to spread the suspension evenly on the entire surface of the plate. Thereafter, the unabsorbed part of the suspension was removed by using a Pasteur pipette. After the surface had dried, small wells (diameter, 2 mm) were drilled on the plates (five wells per plate) by using a sterile sharp-edged narrow metal tube, single-use pipette tip, and vacuum suction. An alternative method used a swab to spread the inoculum. Samples (4 μl and 10 μl) of the peptide solution in 0.9% NaCl (at concentrations of 1 μg/ml and 0.1 μg/ml) were then pipetted to the wells and the sample fluids were allowed to absorb. Controls included 0.9% NaCl solution without the compound to be tested. The plates were then incubated for 18 h at 37° C. whereafter the diameters of growth inhibition zones around each well were measured; the diameter of the well itself was not reduced. Finally, the diameters were converted to surface areas of growth inhibition (in square mm).
(§2) The susceptibility of eleven Gram-negative bacterial strains (nine different species) to NAB734 and polymyxin B was compared by using the susceptibility determination method described in Example 2. The strains included those belonging to the species of Serratia marcescens and Proteus mirabilis, both species generally known to be resistant to polymyxin. Furthermore, the susceptibility determination was also performed by using the Gram-positive bacterium, Staphylococcus aureus, also generally known to be polymyxin-resistant. Ten of the strains originated from ATCC (American Type Culture Collection, Manassas, Va., U.S.A.), and one from CCUG (Culture Collection of University of Gothenburg, Sweden). The source of E. coli IH3080 has been described in Example 2. Polymyxin B sulfate was from Sigma-Aldrich (St. Louis, Mo., USA).

K. pneumoniae ATCC13883 = test: Growth inhibition around wells on LB agar plates; format: cell-based, Klebsiella pneumoniae
Experimental: as §1, §2

E. coli ATCC25922 = test: Growth inhibition around wells on LB agar plates; format: cell-based, Escherichia coli
Experimental: as §1, §2

S. marcescens ATCC8100 = test: Growth inhibition around wells on LB agar plates; format: cell-based, Serratia marcescens
Experimental: as §1, §2

E. coli IH3080 [1] = test: E-test MIC with or without NAB7061 (4 μg/ml), Mueller-Hinton agar; format: cell-based, Escherichia coli
Method in brief: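 MICs were read from antibiotic gradient strips applied according to the manufacturer's instructions.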

Pseudomonas aeruginosa = format: cell-based
Experimental: Polymyxin B sulfate (Sigma-Aldrich, St. Louis, Mo., USA) was used as a control. […] Fourteen (14) strains (the F-strains) were purchased from Mobidiag Ltd., Helsinki, Finland. Besides bacteria, the MIC was also determined for the yeast Candida albicans (ATCC 28366 from ATCC). The inocula were prepared by adjusting the bacterial suspensions to a density equivalent to OD546 nm˜0.3 (˜10^8 CFU/ml˜0.5 McFarland) the yeast suspension to a density equivalent to OD546 nm˜0.75 (˜2×10^7 CFU/ml)._The suspensions were diluted to 10^7 CFU/ml. The plates were inoculated by using a Denley Multipoint Inoculator, 1 μl per spot corresponding to approx. 10^4 CFU/spot. Plates were incubated for 16-20 hours at 35° C. […] Both agents had good activity also against other polymyxin-susceptible strains of Enterobacteriaceae. […] S. aureus and C. albicans were resistant to the NAB peptides.

E. coli IH3080 [2] = test: Bactericidal activity in PBS (% survival); format: cell-based, Escherichia coli; conditions: solution age fresh
Experimental: For the measurement of the antibacterial activity of aqueous solutions of NAB 739 methanesulfonate sodium, three different solutions were made: 1) A solution (1 mg/ml) made in 0.9% NaCl immediately prior to the experiment, 2) a solution (1 mg/ml) made in 0.9% NaCl 24 h prior to the experiment and kept at 37° C., 3) a solution (1 mg/ml) made in 0.9% NaCl 48 h prior to the experiment and kept at 37° C. A freshly made solution of NAB 739 acetate served as the control compound.
The test bacterium was E. coli IH3080. It was grown in LB broth (LB broth Lennox, Difco, BD, Sparks, Md., U.S.A.) at 37 Celsius in a rotary shaker into early logarithmic growth phase, washed with PBS, and resuspended in PBS to approx. 10e9 cells/ml. PBS was inoculated with approx. 500 CFU (colony forming units) of bacteria per ml and pipetted in 0.2 ml aliquots into wells of a microtiter plate. The plates already contained increasing concentrations of NAB 739 methanesulfonate or the control compound in 0.020 ml of 0.9% NaCl. […] The plate was incubated overnight at 37° C. and the developed colonies were counted.

in vivo = conditions: male, Sprague-Dawley, rat, iv, 1 mg/kg
Experimental: Each rat (n=5, Sprague-Dawley, male) was anaesthetized using isoflurane, and a polyethylene cannula was inserted into the jugular vein. Each rat was placed into a metabolic cage and allowed to recover from the procedure overnight. […] When collecting samples, the first 100 μl of blood was withdrawn and kept in the syringe. After collecting the actual sample with another syringe, the content of the first syringe was returned to the rat together with 400 μl of heparinized saline. Blood samples were centrifuged to obtain plasma. […] Plasma and urine samples were stored at −80° C.
To a 100-μl sample, 100 μl of acetonitrile was added, the mixture was vortex-mixed for 1 min, and centrifuged at 10,000 g for 10 min. The supernatant was transferred to an SPE C18 cartridge (Sep-Pak, Waters, Mass. USA) for derivatization with 9-fluorenylmethyl chloroformate. […] The chromatography employed the HPLC C18 column (50×4.6 mm), the mobile phase of acetonitrile/tetrahydrofuran/water (60:15:30, v/v), the flow rate of 1.0 ml/min, and the detection at an excitation wavelength of 260 nm and an emission wavelength of 315 nm.

Compound: Polymyxin B [reference compound]
- growth inhibition around a well (K. pneumoniae CCUG45421; 4 μg): 95 square millimeters
- growth inhibition around a well (K. pneumoniae CCUG45421; 10 μg): 133 square millimeters
- growth inhibition around a well (K. pneumoniae ATCC13883; 4 μg): 79 square millimeters
- growth inhibition around a well (K. pneumoniae ATCC13883; 10 μg): 113 square millimeters
- growth inhibition around a well (E. coli ATCC25922; 4 μg): 95 square millimeters
- growth inhibition around a well (E. coli ATCC25922; 10 μg): 133 square millimeters
- growth inhibition around a well (S. marcescens ATCC8100; 4 μg): 0 square millimeters
- growth inhibition around a well (S. marcescens ATCC8100; 10 μg): 0 square millimeters
- Sensitization factor to antibiotic (MIC without / with 4 μg/ml of NAB 7061) (E. coli IH3080 [1]): 2

Compound: CCCCCCCCCC(=O)N[C@H](C(=O)N[C@H](CO)C(=O)N[C@H]1CCNC(=O)[C@H]([C@@H](C)O)NC(=O)[C@H](CCN)NC(=O)[C@H](CCN)NC(=O)[C@H](CC(C)C)NC(=O)[C@@H](Cc2ccccc2)NC(=O)[C@H](CCN)NC1=O)[C@@H](C)O [NAB 740, DA-Thr-DSer-cy[Dab-Dab-DPhe-Leu-Dab-Dab-Thr-]] (Decanoyl-T[dS][Dab][Dab][dF]L[Dab][Dab]T; lactam 3-C)
- MIC, range for Pseudomonas aeruginosa (Pseudomonas aeruginosa): 4 to 8 µg/mL

Compound: CCCCCCCC(=O)N[C@H](C(=O)N[C@H](CO)C(=O)N[C@H]1CCNC(=O)[C@H]([C@@H](C)O)NC(=O)[C@H](CCN)NC(=O)[C@H](CCN)NC(=O)[C@H](CC(C)C)NC(=O)[C@@H](Cc2ccccc2)NC(=O)[C@H](CCN)NC1=O)[C@@H](C)O [NAB 739, OA-Thr-DSer-cy[Dab-Dab-DPhe-Leu-Dab-Dab-Thr-]] (Octanoyl-T[dS][Dab][Dab][dF]L[Dab][Dab]T; lactam 3-C)
- % survival at 37 degrees centigrade (E. coli IH3080 [2]; 1 μg/ml): 21%
- % survival at 37 degrees centigrade (E. coli IH3080 [2]; 2 μg/ml): 2%
- % survival at 37 degrees centigrade (E. coli IH3080 [2]; 4 μg/ml): 0%

Compound: CCCCCCCC(=O)N[C@H](C(=O)N[C@@H](CC)C(=O)N[C@H]1CCNC(=O)[C@H]([C@@H](C)O)NC(=O)[C@H](CCN)NC(=O)[C@H](CCN)NC(=O)[C@H](CC(C)C)NC(=O)[C@@H](Cc2ccccc2)NC(=O)[C@H](CCN)NC1=O)[C@@H](C)O [NAB 7061, OA-Thr-Abu-cy[Dab-Dab-DPhe-Leu-Dab-Dab-Thr-]] (Octanoyl-T[Abu][Dab][Dab][dF]L[Dab][Dab]T; lactam 3-C)
- CL renal (in vivo; plasma and urine): 0.28 ± 0.16 mL/min/kg
- Vd (in vivo; plasma): 0.339 ± 0.096 L/kg
- clearance (in vivo; plasma): 3.84 ± 0.75 mL/min/kg
- half-life (in vivo; plasma): 1.1 ± 0.205 h
- dose excreted (in vivo; urine): 7.16 ± 3.7%
